According to ChEMBL document CHEMBL4406908, “Identification of neomacrophorins isolated from Trichoderma sp. 1212-03 as proteasome inhibitors” (Bioorg Med Chem, 2019):
The source made the active and inactive calls. The calls are words filed in the database; no cut-off is given here.

Assays:
[1] = system: HL-60; assay: Antiproliferative activity against human HL60 cells assessed as cell growth inhibition incubated for 2 days by MTT assay; format: functional, cell-based; settings: HL-60, 48 h
[2] = system: HL-60; assay: Induction of apoptosis in human HL60 cells assessed as increase in DNA fragmentation incubated for 4 hrs by ethidium bromide staining based agarose gel electrophoresis method; format: functional, cell-based
[3] = system: HL-60; assay: Induction of apoptosis in human HL60 cells assessed as increase in cleavage of caspase 3 incubated for 4 hrs by Western blot analysis; format: functional, cell-based
[4] = molecular target: T1, Proteasome Macropain subunit MB1 (Homo sapiens) (UniProt P28074); assay: (§1) Inhibition of chymotrypsin-like activity of beta5 subunit of 20S proteasome in human erythrocytes using Suc-LLVY-MCA as substrate preincubated with enzyme for 10 mins followed by substrate addition and measured after 3 hrs by fluorescence spectrophotometric analysis
T1 sequence (whole entry): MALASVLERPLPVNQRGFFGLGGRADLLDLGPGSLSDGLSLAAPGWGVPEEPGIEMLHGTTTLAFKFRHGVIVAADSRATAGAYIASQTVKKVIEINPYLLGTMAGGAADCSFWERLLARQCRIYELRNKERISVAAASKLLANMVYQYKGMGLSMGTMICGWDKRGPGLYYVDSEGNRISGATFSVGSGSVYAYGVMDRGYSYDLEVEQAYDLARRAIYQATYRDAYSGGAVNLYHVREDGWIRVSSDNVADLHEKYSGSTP

[5] = molecular target: T2, Proteasome Macropain subunit MB1 (Homo sapiens, UniProt P28074); assay: as §1
T2 sequence (P28074 whole entry): T1 sequence (whole entry)

[6] = molecular target: Proteasome Macropain subunit (Homo sapiens) (UniProt P49721); assay: Inhibition of trypsin-like activity of beta2 subunit of 20S proteasome in human erythrocytes using Boc-LRR-MCA as substrate preincubated with enzyme for 10 mins followed by substrate addition and measured after 3 hrs by fluorescence spectrophotometric analysis; format: cell-based
[7] = molecular target: T3, Proteasome component C5 (Homo sapiens) (UniProt P20618); assay: Inhibition of caspase-like activity of beta1 subunit of 20S proteasome in human erythrocytes using Z-LLE-MCA as substrate preincubated with enzyme for 10 mins followed by substrate addition and measured after 3 hrs by fluorescence spectrophotometeric analysis
T3 sequence (whole entry): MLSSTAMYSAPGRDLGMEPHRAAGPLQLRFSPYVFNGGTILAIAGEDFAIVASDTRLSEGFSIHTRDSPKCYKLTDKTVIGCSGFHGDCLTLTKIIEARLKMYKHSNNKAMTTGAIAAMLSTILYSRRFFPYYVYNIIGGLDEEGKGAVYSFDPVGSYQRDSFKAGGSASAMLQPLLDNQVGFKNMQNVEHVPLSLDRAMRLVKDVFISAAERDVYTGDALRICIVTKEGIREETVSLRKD

[8] = system: HL-60; assay: Induction of apoptosis in human HL60 cells assessed as ROS generation; format: functional, cell-based
[9] = system: HL-60; assay: Induction of apoptosis in human HL60 cells assessed as DNA fragmentation at 50 uM preincubated with 50 uM pan caspase inhibitor, z-VAD-FMK for 1 hr followed by incubation with compound for 4 hrs by ethidium bromide staining based agarose gel electrophoresis method; format: functional, cell-based
[10] = system: HL-60; assay: Inhibition of proteasome in human HL60 cells assessed as increase in accumulation of ubiquitinated proteins at 12.5 to 50 uM incubated for 4 hrs by Western blot analysis; format: functional, cell-based
[11] = system: HL-60; assay: Induction of apoptosis in human HL60 cells assessed as DNA fragmentation at 5 uM preincubated with 50 uM pan caspase inhibitor, z-VAD-FMK for 1 hr followed by incubation with compound for 4 hrs by ethidium bromide staining based agarose gel electrophoresis method; format: functional, cell-based
[12] = system: HL-60; assay: Induction of apoptosis in human HL60 cells assessed as caspase 3 cleavage at 5 uM incubated for 4 hrs in presence of 5 mM nucleophile, NAC by Western blot analysis; format: functional, cell-based
[13] = system: Proteasome; assay: Inhibition of proteasome in human HL60 cells assessed as accumulation of ubiquitinated proteins at 5 uM incubated for 4 hrs in presence of 5 mM nucleophile, NAC by Western blot analysis; format: subcellular
[14] = system: HL-60; assay: Inhibition of proteasome in human HL60 cells assessed as increase in accumulation of ubiquitinated proteins at 1.25 to 5 uM incubated for 4 hrs by Western blot analysis; format: functional, cell-based
[15] = Binding affinity to NAC methyl ester in PBS-MeOH (7:3) solution at 1 mM by ESI/LC-MS analysis
[16] = Binding affinity to NAC methyl ester in PBS-MeOH (7:3) solution assessed as methyl 3-[[(1R,6S)-6-[[(1S,4aR,6R,8aR)-6-hydroxy-5,5,8a-trimethyl-2-methylene-decalin-1-yl]methyl]-3-(hydroxymethyl)-2,5-dioxo-7-oxabicyclo[4.1.0]heptan-4-yl]sulfanyl]-2-acetamido-propanoate formation at 1 mM by HPLC analysis
[17] = system: HL-60; assay: Antiproliferative activity against human HL60 cells assessed as cell viability at 0.5 to 1 uM incubated for 48 hrs in presence of 5 mM nucleophile, NAC by trypan blue dye exclusion assay; format: functional, cell-based
[18] = system: HL-60; assay: Antiproliferative activity against human HL60 cells assessed as cell viability at 5 to 10 uM incubated for 48 hrs in presence of 5 mM nucleophile, NAC by trypan blue dye exclusion assay; format: functional, cell-based
[19] = Binding affinity to NAC methyl ester in PBS-MeOH (7:3) solution assessed as methyl 4-[[(1R,6S)-6-[[(1S,4aR,6R,8aR)-6-hydroxy-5,5,8a-trimethyl-2-methylene-decalin-1-yl]methyl]-3-[(2-acetamido-3-methoxy-3-oxo-propyl)sulfanylmethyl]-2,5-dioxo-7-oxabicyclo[4.1.0]heptan-4-yl]sulfanyl]-3-acetamido-butanoate formation at 1 mM by HPLC analysis
[20] = Binding affinity to NAC methyl ester in PBS-MeOH (7:3) solution assessed as methyl 3-[[(1R,6S)-6-[[(1S,4aR,6R,8aR)-6-hydroxy-5,5,8a-trimethyl-2-methylene-decalin-1-yl]methyl]-2,5-dioxo-7-oxabicyclo[4.1.0]hept-3-en-3-yl]methylsulfanyl]-2-acetamido-propanoate formation at 1 mM by HPLC analysis
[21] = Binding affinity to NAC methyl ester in PBS-MeOH (7:3) solution assessed as disappearance of peak regarding parent compound at 1 mM measured within 1 min by HPLC analysis
[22] = Binding affinity to NAC methyl ester assessed as methyl 3-[[(1R,6S)-6-[[(1S,4aR,6R,8aR)-6-hydroxy-5,5,8a-trimethyl-2-methylene-decalin-1-yl]methyl]-2,5-dioxo-7-oxabicyclo[4.1.0]hept-3-en-3-yl]methylsulfanyl]-2-acetamido-propanoate formation by UV spectra analysis
[23] = system: COLO 201; assay: Cytotoxicity against human COLO201 cells; format: functional, cell-based
[24] = molecular target: T1, Proteasome Macropain subunit MB1 (Homo sapiens); assay: Inhibition of chymotrypsin-like activity of beta5 subunit of 20S proteasome in human erythrocytes at 100 uM using Suc-LLVY-MCA as substrate preincubated with enzyme for 10 mins followed by substrate addition and measured after 3 hrs by fluorescence spectrophotometeric analysis
[25] = molecular target: Proteasome Macropain subunit (Homo sapiens) (UniProt P49721); assay: Inhibition of trypsin-like activity of beta2 subunit of 20S proteasome in human erythrocytes at 100 uM using Boc-LRR-MCA as substrate preincubated with enzyme for 10 mins followed by substrate addition and measured after 3 hrs by fluorescence spectrophotometric analysis
[26] = molecular target: T3, Proteasome component C5 (Homo sapiens); assay: Inhibition of caspase-like activity of beta1 subunit of 20S proteasome in human erythrocytes at 100 uM using Z-LLE-MCA as substrate preincubated with enzyme for 10 mins followed by substrate addition and measured after 3 hrs by fluorescence spectrophotometeric analysis
[27] = system: HL-60; assay: Inhibition of proteasome in human HL60 cells assessed as accumulation of ubiquitinated proteins at 100 uM incubated for 4 hrs by Western blot analysis; format: functional, cell-based
[28] = system: HL-60; assay: Induction of apoptosis in human HL60 cells assessed as DNA fragmentation at 100 uM preincubated with 50 uM pan caspase inhibitor, z-VAD-FMK for 1 hr followed by incubation with compound for 4 hrs by ethidium bromide staining based agarose gel electrophoresis method; format: functional, cell-based
[29] = Binding affinity to NAC methyl ester in PBS-MeOH (7:3) solution at 1 mM by HPLC analysis

Chain of Proteasome Macropain subunit (Homo sapiens) (P49721 whole entry): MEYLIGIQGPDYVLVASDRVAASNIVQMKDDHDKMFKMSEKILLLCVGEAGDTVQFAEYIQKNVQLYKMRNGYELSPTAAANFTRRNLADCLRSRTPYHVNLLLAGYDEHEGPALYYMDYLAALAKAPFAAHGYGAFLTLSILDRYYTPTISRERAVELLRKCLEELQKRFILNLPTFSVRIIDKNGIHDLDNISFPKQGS

SMILES: C=C1CC[C@H]2C(C)(C)[C@H](O)CC[C@]2(C)[C@H]1C[C@]12O[C@H]1[C@H](O)C(COC(=O)C[C@H](C)O)=CC2=O
- IC50 [1]: 15 µM
- Activity [2]: Dose-dependent effect
- Activity [3]: Dose-dependent effect
- inhibition [4]: Dose-dependent effect
- IC50 [5]: 31.9 µM
- inhibition [6]: Dose-dependent effect
- inhibition [7]: Dose-dependent effect
- Activity [8]: inactive
- Activity [9]: inactive
- inhibition [10]: Active

SMILES: C=C1CC[C@H]2C(C)(C)[C@H](O)CC[C@]2(C)[C@H]1C[C@]12O[C@H]1C(=O)C(CO)=CC2=O
- IC50 [1]: 0.3 µM
- Activity [2]: Dose-dependent effect
- Activity [3]: Dose-dependent effect
- Activity [11]: inactive
- inhibition [4]: Dose-dependent effect
- IC50 [5]: 26.3 µM
- inhibition [6]: Dose-dependent effect
- inhibition [7]: Dose-dependent effect
- Activity [12]: inactive
- inhibition [13]: inactive
- Activity [8]: inactive
- inhibition [14]: Active
- Activity [15]: Active
- Activity [16]: Active
- inhibition [17]: inactive

SMILES: C=C1CC[C@H]2C(C)(C)[C@H](O)CC[C@]2(C)[C@H]1C[C@]12O[C@H]1C(=O)C(COC(=O)[C@H](O)[C@H](C)O)=CC2=O
- IC50 [1]: 2.6 µM
- Activity [2]: Dose-dependent effect
- Activity [3]: Dose-dependent effect
- Activity [11]: inactive
- inhibition [4]: Dose-dependent effect
- IC50 [5]: 5.7 µM
- inhibition [6]: Dose-dependent effect
- inhibition [7]: Dose-dependent effect
- Activity [18]: inactive
- Activity [12]: inactive
- inhibition [13]: inactive
- Activity [8]: inactive
- inhibition [14]: Active
- Activity [19]: Active
- Activity [15]: Active
- Activity [20]: Active
- Activity [21]: Active
- Activity [22]: Active
- IC50 [23]: 96.6 µM

SMILES: C=C1CC[C@H]2C(C)(C)[C@H](O)CC[C@]2(C)[C@H]1C[C@]12O[C@H]1[C@H](O)C(CO)=CC2=O
- IC50 [1]: 25.3 µM
- Activity [2]: Dose-dependent effect
- Activity [3]: Dose-dependent effect
- IC50 [5]: > 100 µM
- inhibition [24]: inactive
- inhibition [25]: inactive
- inhibition [26]: inactive
- Activity [8]: inactive
- inhibition [27]: inactive
- Activity [28]: inactive
- Activity [29]: inactive

SMILES: C=C1CC[C@H]2C(C)(C)[C@H](O)CC[C@]2(C)[C@H]1C[C@]12O[C@H]1C(=O)C(COC(=O)C[C@H](C)O)=CC2=O
- IC50 [1]: 1.3 µM
- Activity [2]: Dose-dependent effect
- Activity [3]: Dose-dependent effect
- Activity [11]: inactive
- inhibition [4]: Dose-dependent effect
- IC50 [5]: 5.3 µM
- inhibition [6]: Dose-dependent effect
- inhibition [7]: Dose-dependent effect
- Activity [18]: inactive
- Activity [12]: inactive
- inhibition [13]: inactive
- Activity [8]: inactive
- inhibition [14]: Active
- Activity [19]: Active
- Activity [15]: Active
- Activity [20]: Active
- Activity [22]: Active

SMILES: C=C1CC[C@H]2C(C)(C)[C@H](O)CC[C@]2(C)[C@H]1C[C@]12O[C@H]1[C@H](O)C(COC(=O)[C@H](O)[C@H](C)O)=CC2=O
- IC50 [1]: 21.6 µM
- Activity [2]: Dose-dependent effect
- Activity [3]: Dose-dependent effect
- inhibition [4]: Dose-dependent effect
- IC50 [5]: 93.6 µM
- inhibition [6]: Dose-dependent effect
- inhibition [7]: Dose-dependent effect
- Activity [8]: inactive
- Activity [9]: inactive
- inhibition [10]: Active
